Assay results: ChEMBL document CHEMBL1131172 (J Med Chem, 1998)
pIC50: −log10 of the molar value. Each block holds one compound with its values, some of them ahead of it.

What was measured:
[1] = target: T1, Bifunctional dihydrofolate reductase-thymidylate synthase (Toxoplasma gondii, UniProt Q07422)
T1 sequence (Q07422 whole entry): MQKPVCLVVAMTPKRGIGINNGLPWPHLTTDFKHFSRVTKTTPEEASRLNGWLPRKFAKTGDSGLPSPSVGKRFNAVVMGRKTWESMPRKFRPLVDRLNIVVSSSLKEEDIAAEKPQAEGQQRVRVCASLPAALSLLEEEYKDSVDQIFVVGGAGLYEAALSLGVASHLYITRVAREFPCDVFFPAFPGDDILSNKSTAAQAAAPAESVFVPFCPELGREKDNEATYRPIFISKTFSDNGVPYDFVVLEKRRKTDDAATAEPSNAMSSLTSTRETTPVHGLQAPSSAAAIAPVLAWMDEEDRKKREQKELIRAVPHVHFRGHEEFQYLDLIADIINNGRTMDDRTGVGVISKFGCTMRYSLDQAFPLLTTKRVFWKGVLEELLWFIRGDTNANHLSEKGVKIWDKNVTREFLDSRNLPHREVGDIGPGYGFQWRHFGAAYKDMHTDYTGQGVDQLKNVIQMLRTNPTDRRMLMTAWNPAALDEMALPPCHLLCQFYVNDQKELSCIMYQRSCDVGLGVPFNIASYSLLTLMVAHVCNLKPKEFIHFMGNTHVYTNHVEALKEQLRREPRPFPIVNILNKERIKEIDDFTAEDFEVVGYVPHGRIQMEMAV
Description: Inhibitory activity against dihydrofolate reductase (DHFR) from Toxoplasma gondii

Dihydrofolate reductase [2] = target: T2, Dihydrofolate reductase (Rattus norvegicus, UniProt Q920D2)
T2 sequence (Q920D2 whole entry): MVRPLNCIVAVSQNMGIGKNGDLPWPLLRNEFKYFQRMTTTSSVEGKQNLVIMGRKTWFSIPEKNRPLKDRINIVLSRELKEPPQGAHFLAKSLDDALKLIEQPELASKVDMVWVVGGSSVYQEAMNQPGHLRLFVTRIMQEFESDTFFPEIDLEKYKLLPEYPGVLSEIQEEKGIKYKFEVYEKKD
Description: Inhibitory activity against dihydrofolate reductase (DHFR) from rat liver

Dihydrofolate reductase [3] = target: T3, Dihydrofolate reductase (Pneumocystis carinii, UniProt P16184)
T3 sequence (P16184 whole entry): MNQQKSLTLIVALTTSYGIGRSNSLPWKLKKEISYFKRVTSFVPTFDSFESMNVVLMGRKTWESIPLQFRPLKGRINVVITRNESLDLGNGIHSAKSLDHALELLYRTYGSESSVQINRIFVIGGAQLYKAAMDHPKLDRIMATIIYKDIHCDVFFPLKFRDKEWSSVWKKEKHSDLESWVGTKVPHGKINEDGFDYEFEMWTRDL
Description: Inhibitory activity against dihydrofolate reductase (DHFR) from Pneumocystis carinii

SF-539 = experiment: inhibition of the growth of CNS cancer(SF-539) cell line; format: functional; details: Homo sapiens
UO-31 [4] = experiment: inhibition of the growth of renal cancer(UO-31) cell line; format: functional; details: Homo sapiens
KM12 = experiment: inhibition of the growth of colon cancer(KM-12) cell line; format: functional; details: Homo sapiens
NCI-H460 = experiment: inhibition of the growth of non-small-cell lung cancer (NCI-H460) cell line; format: functional; details: Homo sapiens
NCI-H23 = experiment: inhibition of the growth of non-small-cell lung cancer (NCI-H23) cell line; format: functional; details: Homo sapiens
SK-MEL-5 = experiment: inhibition of the growth of melanoma cancer (SK-MEL-5) cell line; format: functional; details: Homo sapiens
NCI-H322M = experiment: inhibition of the growth of non-small-cell lung cancer (NCI-H322M) cell line; format: functional; details: Homo sapiens
MOLT-4 = experiment: inhibition of the growth of leukemia (MOLT-4) cell line; format: functional; details: Homo sapiens
SF-268 = experiment: inhibition of the growth of CNS cancer(SF-268) cell line; format: functional; details: Homo sapiens
OVCAR-8 = experiment: inhibition of the growth of ovarian cancer(OVCAR-8) cell line; format: functional; details: Homo sapiens
UO-31 [5] = experiment: Inhibition of the growth of renal cancer(UO-31) cell line at 0.01 uM; format: functional; details: Homo sapiens
NCI/ADR-RES = experiment: inhibition of the growth of breast cancer (MCF7/ADR-RES) cell line; format: functional; details: Homo sapiens
DU-145 = experiment: inhibition of the growth of prostate cancer(DU-145) cell line; format: functional; details: Homo sapiens
NCI-H522 = experiment: inhibition of the growth of non-small-cell lung cancer (NCI-H522) cell line; format: functional; details: Homo sapiens
SNB-19 = experiment: inhibition of the growth of CNS cancer(SNB-19) cell line; format: functional; details: Homo sapiens
SF-295 = experiment: inhibition of the growth of CNS cancer(SF-295) cell line; format: functional; details: Homo sapiens
CAKI-1 = experiment: inhibition of the growth of renal cancer(CAKI-1) cell line; format: functional; details: Homo sapiens
RPMI-8226 = experiment: inhibition of the growth of leukemia (RPMI-8226) cell line; format: functional; details: Homo sapiens
786-0 = experiment: inhibition of the growth of renal cancer(786-0) cell line; format: functional; details: Homo sapiens
HCT-116 = experiment: inhibition of the growth of colon cancer(HCT116) cell line; format: functional; details: Homo sapiens
A549 = experiment: inhibition of the growth of non-small-cell lung cancer (A549/ATCC) cell line; format: functional; details: Homo sapiens
HCT-15 = experiment: inhibition of the growth of colon cancer(HCT-15) cell line; format: functional; details: Homo sapiens
M14 = experiment: inhibition of the growth of melanoma cancer (M14) cell line; format: functional; details: Homo sapiens
IGROV-1 = experiment: inhibition of the growth of ovarian cancer(IGROVI) cell line; format: functional; details: Homo sapiens
MCF7 = experiment: inhibition of the growth of breast cancer (MCF-7) cell line; format: functional; details: Homo sapiens
MDA-N = experiment: inhibition of the growth of breast cancer(MDA-N) cell line; format: functional; details: Homo sapiens
MDA-MB-435 = experiment: inhibition of the growth of breast cancer (MDA-MB-435) cell line; format: functional; details: Homo sapiens
SR = experiment: inhibition of the growth of leukemia(SR) cell line; format: functional; details: Homo sapiens

Structure (SMILES): Nc1nc(N)c2nc(Nc3ccc4ccccc4c3)ccc2n1
pIC50 [1]: 5.96
pIC50 (Dihydrofolate reductase [2]): 5.70
pIC50 (Dihydrofolate reductase [3]): 4.82

Structure (SMILES): COc1cc(CNc2ccc3nc(N)nc(N)c3n2)cc(OC)c1OC
pIC50 [1]: 6.31
pIC50 (Dihydrofolate reductase [2]): 5.85

Structure (SMILES): COc1ccc(Nc2ccc3nc(N)nc(N)c3n2)cc1OC
pIC50 [1]: 6.17
pIC50 (Dihydrofolate reductase [2]): 5.96
pIC50 (Dihydrofolate reductase [3]): 4.39

Structure (SMILES): COc1ccc(Sc2ccc3nc(N)nc(N)c3n2)cc1OC
pIC50 [1]: 7.72
pIC50 (Dihydrofolate reductase [2]): 7.74
pIC50 (Dihydrofolate reductase [3]): 7.07

Structure (SMILES): COc1cc(Nc2ccc3nc(N)nc(N)c3n2)cc(OC)c1OC
pIC50 [1]: 5.62
pIC50 (Dihydrofolate reductase [2]): 5.49
pIC50 (Dihydrofolate reductase [3]): 4.59

Structure (SMILES): COc1ccc(S(=O)(=O)c2ccc3nc(N)nc(N)c3n2)cc1OC
pIC50 [1]: 6.03
pIC50 (Dihydrofolate reductase [2]): 6.06
pIC50 (Dihydrofolate reductase [3]): 5.57

Structure (SMILES): COc1ccccc1S(=O)(=O)c1ccc2nc(N)nc(N)c2n1
pIC50 [1]: 6.68
pIC50 (Dihydrofolate reductase [2]): 5.85
pIC50 (Dihydrofolate reductase [3]): 5.49

Structure (SMILES): Nc1nc(N)c2nc(Nc3ccccc3)ccc2n1
GI50 (SF-539): 2950 nM
GI50 (UO-31 [4]): < 10 nM
GI50 (KM12): 5940 nM
GI50 (NCI-H460): 430 nM
GI50 (NCI-H23): 3670 nM
GI50 (SK-MEL-5): 830 nM
GI50 (NCI-H322M): 8020 nM
pIC50 [1]: 6.52
pIC50 (Dihydrofolate reductase [2]): 6.37
GI50 (MOLT-4): 2180 nM
GI50 (SF-268): 6050 nM
GI50 (OVCAR-8): 990 nM
inhibition at 0.01 µM (UO-31 [5]): 57%
GI50 (NCI/ADR-RES): 2690 nM
GI50 (DU-145): 4990 nM
GI50 (NCI-H522): 4260 nM
GI50 (SNB-19): 1570 nM
GI50 (SF-295): 1430 nM
pIC50 (Dihydrofolate reductase [3]): 5.08
GI50 (CAKI-1): 3580 nM
GI50 (RPMI-8226): 670 nM
GI50 (786-0): 890 nM
GI50 (HCT-116): 510 nM
GI50 (A549): 640 nM
GI50 (HCT-15): 850 nM
GI50 (M14): 1070 nM
GI50 (IGROV-1): 3270 nM
GI50 (MCF7): 6450 nM
GI50 (MDA-N): 680 nM
GI50 (MDA-MB-435): 570 nM
GI50 (SR): 2910 nM

Structure (SMILES): COc1ccccc1Nc1ccc2nc(N)nc(N)c2n1
pIC50 [1]: 6.34
pIC50 (Dihydrofolate reductase [2]): 6.59

Structure (SMILES): CN(c1ccc2nc(N)nc(N)c2n1)c1cccc2ccccc12
pIC50 [1]: 5.68
pIC50 (Dihydrofolate reductase [2]): 5.48

Now from value to compound, other results behind:

pIC50 (Dihydrofolate reductase [2]): 6.09
Structure (SMILES): Nc1nc(N)c2nc(Nc3ccc(Cl)cc3)ccc2n1
pIC50 [1]: 6.08

pIC50 (Dihydrofolate reductase [2]): 5.70
Structure (SMILES): COc1ccc(S(=O)(=O)c2ccc3nc(N)nc(N)c3n2)cc1
pIC50 [1]: 6.00

pIC50 (Dihydrofolate reductase [2]): 7.12
pIC50 (Dihydrofolate reductase [3]): 6.15
Structure (SMILES): COc1ccc(Sc2ccc3nc(N)nc(N)c3n2)cc1
pIC50 [1]: 7.35

pIC50 (Dihydrofolate reductase [2]): 6.64
pIC50 (Dihydrofolate reductase [3]): 5.66
Structure (SMILES): COc1ccccc1Sc1ccc2nc(N)nc(N)c2n1
pIC50 [1]: 7.24

pIC50 (Dihydrofolate reductase [2]): 5.44
Structure (SMILES): COc1ccc(OC)c(Nc2ccc3nc(N)nc(N)c3n2)c1
pIC50 [1]: 6.14

pIC50 (Dihydrofolate reductase [2]): 5.42
pIC50 (Dihydrofolate reductase [3]): 4.04
Structure (SMILES): COc1ccc(Nc2ccc3nc(N)nc(N)c3n2)cc1
pIC50 [1]: 5.55
